In ChEMBL document CHEMBL3227967, “Quantitative structure-activity relationships in 1-aryl-2-(alkylamino)ethanol antimalarials” (J Med Chem, 1979):

tested on: Plasmodium berghei; test: Antimalarial activity against Plasmodium berghei; format: functional

Point of comparison: `CCCCN(CCCC)CC(O)c1cc2cc(Cl)ccc2c2cc(C(F)(F)F)ccc12` (centres undefined), “log(1/C)” value 3.69. Against it:
- CCCCCCNCC(O)c1cc2ccc(C(F)(F)F)cc2c2cc(C(F)(F)F)ccc12 (centres undefined) — within 0.2 log units, 3.78
- CCCCNCC(O)c1cc(/C=C/c2ccc(C(F)(F)F)cc2)nc(-c2ccc(C(F)(F)F)cc2)c1 (centres undefined) — higher, 3.89
- CCCCN(CCCC)CC(O)c1cc(-c2ccc(Cl)cc2)nc2c(C)cc(C)cc12 (centres undefined) — higher, 3.9
- CCCCCNCC(O)c1cc(-c2ccc(C(F)(F)F)cc2)nc(-c2ccc(C(F)(F)F)cc2)c1 (centres undefined) — higher, 4.17
- CCCCN(CCCC)CC(O)c1cc2ccc(Cl)cc2c2c(Cl)cc(Cl)cc12 (centres undefined) — higher, 4.21
- CCCCN(CCCC)CC(O)c1cc2c(Cl)cc(Cl)cc2c2c(Cl)cc(Cl)cc12 (centres undefined) — higher, 4.05
- CC(C)(C)NCC(O)c1cc(C(F)(F)F)nc2c(C(F)(F)F)cccc12 (centres undefined) — lower, 2.64
- CCCC(C)NCC(O)c1cc(-c2ccc(C(F)(F)F)cc2)nc(-c2ccc(C(F)(F)F)cc2)c1 (centres undefined) — higher, 4.44
- CNCC(O)c1cc2ccc(C(F)(F)F)cc2c2cc(C(F)(F)F)ccc12 (centres undefined) — higher, 4.23
- CCCCN(CCCC)CC(O)c1cc2cc(Br)ccc2c2ccccc12 (centres undefined) — within 0.2 log units, 3.5
- CCCCNC(C)(C)CC(O)c1cc(C(F)(F)F)nc2c(C(F)(F)F)cccc12 (centres undefined) — lower, 3.27
- CCCCCCN(CCCCCC)CC(O)c1cc(-c2ccc(Cl)c(Cl)c2)nc2ccc(OC)cc12 (centres undefined) — lower, 3.35
- C=C[C@H]1CN2CC[C@H]1C[C@H]2[C@H](O)c1ccnc2ccc(OC)cc12.O=C(O)c1ccccc1 — lower, 1.98
- CCCCCCCN(CCCCCCC)CC(O)c1cccc2c1cc(Cl)c1ccc(Cl)cc12 (centres undefined) — lower, 2.96
- CCCCCCCN(CCCCCCC)CC(O)c1cc2c(Cl)cccc2c2ccccc12 (centres undefined) — lower, 2.56
- CCCCCCN(CCCCCC)CC(O)c1cccc2ccc3ccccc3c12 (centres undefined) — lower, 2.2
- CCCCN(CCCC)CC(O)c1cc(-c2ccc(F)cc2)nc2cc(F)ccc12 (centres undefined) — lower, 2.52
- CCCCN(CCCC)CC(O)c1cc2cc(Cl)cc(Cl)c2nc1-c1ccc(Cl)cc1 (centres undefined) — lower, 2.32
- CCCCN(CCCC)CC(O)c1c(Br)c2cc(Br)ccc2c2ccc(Br)cc12 (centres undefined) — lower, 3.09
- CCCCN(CCCC)CC(O)c1cccc2cc3cccc(Cl)c3cc12 (centres undefined) — lower, 2.26
- CCCCN(CCCC)CC(O)c1c(OC)c2cc(Br)ccc2c2ccc(Br)cc12 (centres undefined) — higher, 3.94
- OC(CC1CCCCN1)c1cc(C(F)(F)F)nc2c(F)cccc12 (centres undefined) — lower, 2.36
- OC(CC1CCCCN1)c1cc2c(Cl)cc(Cl)cc2c2cc(Cl)ccc12 (centres undefined) — higher, 4.12
- CCCCN(CCCC)CC(O)c1c(C)cnc2c1cc(Cl)c1ccccc12 (centres undefined) — lower, 2.38
- CCCCN(CCCC)CC(O)c1cc(-c2cccc(I)c2)nc2c(Cl)cc(Cl)cc12 (centres undefined) — lower, 3.16
- CCCCN(CCCC)CC(O)c1cc2ccccc2c2ccsc12 (centres undefined) — lower, 2.22
- CCCCNCC(O)c1cc(-c2ccc(Cl)cc2)nc2cc(Cl)c(OC)cc12 (centres undefined) — within 0.2 log units, 3.88
- CCCCN(CCCC)CC(O)c1cc(-c2ccc(Cl)c(Cl)c2)nc2ccc(OC)cc12 (centres undefined) — lower, 3.33
- CCCCCCCN(CCCCCCC)CC(O)c1cc2ccc(C(F)(F)F)cc2c2cc(Cl)sc12 (centres undefined) — lower, 3.38
- CCCN(CCC)CC(O)c1cc2cc(C(F)(F)F)cc(C(F)(F)F)c2c2ccccc12 (centres undefined) — higher, 4.31
- CCC(C)N(C)CC(O)c1cc(-c2ccc(Cl)cc2)nc(-c2ccc(Cl)cc2)c1 (centres undefined) — within 0.2 log units, 3.59
- CCCNCC(O)c1cc(-c2ccc(C(F)(F)F)cc2)nc(-c2ccc(C(F)(F)F)cc2)c1 (centres undefined) — higher, 4.03
- CCCN(CCC)CC(O)c1cc(C(F)(F)F)nc2c(C(F)(F)F)cccc12 (centres undefined) — lower, 2.88
- CCCCN(CCCC)CC(O)/C(=C/c1ccc(C(F)(F)F)cc1)c1ccc(C(F)(F)F)cc1 (centres undefined) — lower, 3.22
- CCCCN(CCCC)CC(O)c1cc2cc(Br)ccc2c2cc(S(C)(=O)=O)ccc12 (centres undefined) — lower, 3.43
- CCCCN(CCCC)CC(O)c1cc(Cl)cc2c1-c1ccc(Cl)cc1C2 (centres undefined) — higher, 3.97
- OC(CC1CCCCN1)c1cc(-c2ccccc2)nc2c(Cl)cc(Cl)cc12 (centres undefined) — higher, 3.9
- CCN(CC)CC(O)c1cc2cc(Cl)cc(Cl)c2nc1-c1ccc(Cl)cc1 (centres undefined) — lower, 2.47
- CCCCCCCN(CCCCCCC)CC(O)c1c(Br)c2ccccc2c2cc(Br)ccc12 (centres undefined) — lower, 3.42
- CCCCCCCN(CCCCCCC)CC(O)c1cccc2c1ccc1ccccc12 (centres undefined) — lower, 2.58
- OC(CC1CCCCN1)c1cc(C(F)(F)F)nc2c(C(F)(F)F)cccc12 (centres undefined) — higher, 4.41
- CCCCN(CCCC)CC(O)c1cc2ccc(F)cc2c2ccccc12 (centres undefined) — lower, 2.43
- OC(CN1CCCCCC1)c1cc(-c2cccs2)nc2cccc(Br)c12 (centres undefined) — lower, 2.89
- CCCCN(CCCC)CC(O)c1cc(-c2ccc(Cl)cc2)nc2c(C(F)(F)F)cc(Cl)cc12 (centres undefined) — higher, 4.61
- CCCN(CCC)CC(O)c1cc2ccc(C(F)(F)F)cc2c2ccsc12 (centres undefined) — lower, 2.82
- CCCC(CCC)NCC(O)c1cc2ccc(C(F)(F)F)cc2c2cc(C(F)(F)F)ccc12 (centres undefined) — higher, 4.33
- OC(CC1CCCCN1)c1c2c(nc3c(Cl)cc(Cl)cc13)-c1ccc(Cl)cc1CC2 (centres undefined) — the same, 3.69
- CCCCN(CCCC)CC(O)c1cc2ccsc2c2cc(Br)ccc12 (centres undefined) — lower, 3.37
- CCCCN(CCCC)CC(O)c1cc(-c2ccc(Cl)cc2)nc2cc3c(cc12)OCO3 (centres undefined) — lower, 2.99
- CCCCN(CCCC)CC(O)c1cccc2c1ccc1ccccc12 (centres undefined) — lower, 2.06
- CCCCCCN(CCCCCC)CC(O)c1cc2ccc(Br)cc2c2cc(Br)ccc12 (centres undefined) — within 0.2 log units, 3.51
- CC(C)(C)NCCC(O)c1cc2ccc(C(F)(F)F)cc2c2cc(C(F)(F)F)ccc12 (centres undefined) — higher, 4.73
- Cc1ccc2nc(Nc3ccc(Cl)cc3)cc(C(O)CC3CCCCN3)c2c1 (centres undefined) — lower, 2.87
- OC(CC1CCCCN1)c1cc2cc(Cl)ccc2c2c(Cl)cc(Cl)cc12 (centres undefined) — higher, 4.29
- CN1CCN(CC(O)c2cc(-c3ccc(Cl)cc3)nc3cc(Cl)ccc23)CC1 (centres undefined) — lower, 2.66
- OC(CC1CCCCN1)c1cc2cc(Br)ccc2c2cc(C(F)(F)F)ccc12 (centres undefined) — higher, 3.96
- CCCCN(CCCC)CC(O)c1ccc(Cl)c2nc(-c3ccccc3)ccc12 (centres undefined) — lower, 2.47
- CCCCNCCC(O)c1cc2ccc(C(F)(F)F)cc2c2cc(C(F)(F)F)ccc12 (centres undefined) — higher, 4.73
- CCCCN(CCCC)CC(O)c1c(OC)c2cc(Cl)ccc2c2ccc(Cl)cc12 (centres undefined) — within 0.2 log units, 3.71
- OC(CC1CCCCN1)c1cc2ccccc2c2cc(C(F)(F)F)ccc12 (centres undefined) — lower, 3.37
- CCCCCCCN(CCCCCCC)CC(O)c1cc2ccc(Cl)cc2c2cc(Cl)ccc12 (centres undefined) — lower, 3.12
- CCCCN(CCCC)CC(O)c1cc(C(=O)c2cccc(Cl)c2)nc2c(Cl)cc(Cl)cc12 (centres undefined) — higher, 4.48
- CCCCCCCN(CCCCCCC)CCC(O)c1cc2ccc(C(F)(F)F)cc2c2cc(C(F)(F)F)ccc12 (centres undefined) — lower, 3.2
- CCC(CC)NCC(O)c1cc2ccc(C(F)(F)F)cc2c2cc(C(F)(F)F)ccc12 (centres undefined) — higher, 4.2
- CCCCN(CCCC)CC(O)c1cc2ccsc2c2cc(C(F)(F)F)ccc12 (centres undefined) — within 0.2 log units, 3.5
- CCCN(CCC)CC(O)c1cc2ccc(Cl)c(Cl)c2c2cc(C(F)(F)F)ccc12 (centres undefined) — higher, 4.03
- CCCCCCCN(CCCCCCC)CC(O)c1c2ccccc2cc2ccccc12 (centres undefined) — lower, 3.07
- OC(CNC1CCCC1)c1cc(-c2ccc(Cl)cc2)nc2c(Cl)cc(Cl)cc12 (centres undefined) — within 0.2 log units, 3.53
- CCCC(CCC)N(CC(O)c1cc(-c2ccc(C(F)(F)F)cc2)nc(-c2ccc(C(F)(F)F)cc2)c1)C(CCC)CCC (centres undefined) — higher, 4.15
- CCCCCCN(CCCCCC)CC(O)c1cc(-c2ccccc2)nc2c(Cl)cc(Cl)cc12 (centres undefined) — lower, 3.35
- OC(CC1CCCN1)c1cc(-c2ccccc2)nc2ccccc12 (centres undefined) — lower, 2.26
- CCCN(CCC)CC(O)c1cc2cc(Cl)ccc2c2cc(Cl)ccc12 (centres undefined) — higher, 4.06
- OC(CC1CCCCN1)C1CC(c2ccccc2)=Nc2c(Cl)cc(Cl)cc21 (centres undefined) — lower, 2.71
- CCC(C)NCC(O)c1cc(-c2ccc(C(F)(F)F)cc2)nc(-c2ccc(C(F)(F)F)cc2)c1 (centres undefined) — higher, 4.15
- CCCC(CCC)NCC(O)c1cc(-c2ccc(C(F)(F)F)cc2)nc(-c2ccc(C(F)(F)F)cc2)c1 (centres undefined) — higher, 4.35
- OC(CC1CCCCN1)c1cc2ccc(C(F)(F)F)cc2c2ccc(Cl)cc12 (centres undefined) — higher, 4.12
- CCCCCCCN(CCCCCCC)CC(O)c1cc2c(Cl)cc(Cl)cc2c2cc(C(F)(F)F)ccc12 (centres undefined) — within 0.2 log units, 3.53
- CCN(CC)C(CO)CC(O)c1cc(-c2cccs2)nc2ccc(Cl)cc12 (centres undefined) — lower, 2.12
- OC(CC1CCCCN1)c1cc2ccccc2c2c(Cl)cc(Cl)cc12 (centres undefined) — within 0.2 log units, 3.52
- CCCCN(CCCC)CC(O)c1cc(-c2ccc(OC)c(OC)c2)nc2ccc(Cl)cc12 (centres undefined) — lower, 3.33
- OC(CC1CCCCN1)c1cc(C(F)(F)F)nc2cc(C(F)(F)F)ccc12 (centres undefined) — higher, 4.05
- OC(CC1CCCCN1)c1cc(Nc2ccc(Cl)cc2)nc2ccc(Cl)cc12 (centres undefined) — lower, 2.72
- CCCCN(CCCC)CC(O)c1cc2cc(Cl)cc(Cl)c2c2ccc(Cl)cc12 (centres undefined) — higher, 4.12
- CCCCN(CCCC)CC(O)c1cc2c(Cl)cc(Cl)cc2c2cc(C)sc12 (centres undefined) — lower, 3.3
- CCCN(CCC)CC(O)c1cc2ccc(C(F)(F)F)cc2c2cc(Cl)c(Cl)cc12 (centres undefined) — higher, 4.3
- CCCCCCCN(CCCCCCC)CC(O)c1cc2cc(Cl)ccc2c2ccccc12 (centres undefined) — lower, 3.09
- CCCCN(CCCC)CC(O)c1cc(-c2ccc(Cl)cc2)cc2cc(Cl)ccc12 (centres undefined) — higher, 4.24
- CCCCN(CCCC)CC(O)c1cc(-c2ccc(Cl)cc2)nc2cc(OC)c(Cl)cc12 (centres undefined) — lower, 2.76
- CCCCCCCCN(CCCCCCCC)CCC(O)c1cc2c(O)cccc2c2ccccc12 (centres undefined) — lower, 2.65
- OC(CC1CCCCN1)c1ccnc2c(Cl)cccc12 (centres undefined) — lower, 2.01
- CCCCN(CCCC)CC(O)c1cc(-c2ccc(OC)cc2)nc2cc(Cl)c(OC)cc12 (centres undefined) — lower, 3.32
- CCN(CC)CC(O)c1cc(-c2ccc(OC)cc2)nc2cc(Cl)c(OC)cc12 (centres undefined) — lower, 2.92
- CCCCN(CCCC)CC(O)c1c(Br)c2ccccc2c2cc(Br)ccc12 (centres undefined) — lower, 3.23
- CCCCCCCN(CCCCCCC)CC(O)c1cc2ccccc2c2cc(Br)ccc12 (centres undefined) — within 0.2 log units, 3.55
- CCCCN(CCCC)CC(O)c1cc2ccc(Cl)cc2c2cc(C(F)(F)F)ccc12 (centres undefined) — within 0.2 log units, 3.65
- CCCCN(CCCC)CC(O)c1cc2ccc(Br)cc2c2sccc12 (centres undefined) — lower, 2.82
- OC(CC1CCCCN1)c1cc2ccc(C(F)(F)F)cc2c2cc(C(F)(F)F)ccc12 (centres undefined) — higher, 3.99
- CCCCCCCN(CCCCCCC)CC(O)c1cc2ccc(C(F)(F)F)cc2c2ccccc12 (centres undefined) — lower, 3.12
